The results in this text go back to patent publication US10570155B2, “Imidazooxazole derivative having antitumor effect, and pharmaceutical composition including same” (KOREA INSTITUTE OF SCIENCE AND TECHNOLOGY, priority 2016, dated 2020).

As usually defined, the IC50 is the point on the concentration scale where inhibition reaches its midpoint.

The test system of one data set is SK-MEL-28. In words: NCI cancer cell line panel screening (SRB), melanoma cell line SK-MEL-28. Format: cell-based, human. Conditions: Homo sapiens, read-out: IC50 against melanoma cell line in vitro. The protocol:
(§1) According to the standard protocol (http://dtp.nci.nih.gov/dtpstandard/dwindex/index.isp) of the US National Cancer Institute (NCI) (www.dtp.nci.nih.gov), screening of a cancer cell line panel was performed. […] For a general screening experiment, cells were inoculated in 96-well microtiter plates in 100 μl at a plating density ranging from 5000 cells/well to 40,000 cells/well depending on the doubling time of individual cell lines. After cell inoculation, the microtiter plates were incubated at 37° C., 5% CO2, 95% air, and 100% relative humidity for 24 hours prior to addition of test compounds. 24 hours later, two plates of each cell line were fixed in situ with trichloroacetic acid (TCA) to measure the cell population for each cell line at the time of test compound addition (Tz). Test compounds were solubilized in dimethyl sulfoxide at 400-fold the intended final maximum test concentration, and stored frozen prior to use. At the time of compound addition, an aliquot of frozen concentrate was thawed and diluted to twice the intended final maximum test concentration with a complete medium containing 50 μg/ml of gentamicin. Additional four concentration of 10-fold or ½ log serial dilutions were made to provide a total of five compound concentrations plus control. Aliquots of 100 μl of these different compound dilutions were added to appropriate microtiter wells already containing 100 μl of medium, resulting in the required final compound concentrations.
(§2) Following compound addition, the plates were incubated for additional 48 hours at 37° C., 5% CO2, 95% air, and 100% relative humidity. For adherent cells, the assay was terminated by the addition of cold TCA. Cells were fixed in situ by the gentle addition of 50 μl of cold 50% (w/v) TCA (final concentration, 10% TAC) and incubated at 4° C. for 60 minutes. The supernatant was discarded, and the plates were washed five times with tap water and air-dried. A sulforhodamine B (SRB) solution (100 μl) at 0.4% (w/v) in 1% acetic acid was added to each well, and plates were incubated at room temperature for 10 minutes. After staining, unbound dye was removed by washing five times with 1% acetic acid and the plates were air-dried. […] For suspension cells, the methodology was the same except that the assay was terminated by fixing settled cells at the bottom of the wells by gently adding 50 μl of 80% TCA (final concentration, 16% TCA). Using the seven absorbance measurements [time zero (Tz), control growth (C), and test growth rate in the presence of compound at the five concentration levels (Ti)], the growth percentage was calculated at each of the compound concentration levels. Growth inhibition percentage was calculated as follows: [(Ti−Tz)/(C−Tz)]×100 for concentrations for which Ti>/=Tz [(Ti−Tz)/Tz]×100 for concentrations for which Ti<Tz.

The test system of another data set is LOX IMVI. In words: NCI cancer cell line panel screening (SRB), melanoma cell line LOX IMVI. The conditions noted are these: Homo sapiens, read-out: IC50 against melanoma cell line in vitro. In kind it is cell-based, human. The protocol:
as §1, §2

A further data set deals with UACC-62. In words: NCI cancer cell line panel screening (SRB), melanoma cell line UACC-62. In kind it is cell-based. Conditions: Homo sapiens, read-out: IC50 against melanoma cell line in vitro. The procedure: (§3) According to the standard protocol (http://dtp.nci.nih.gov/dtpstandard/dwindex/index.isp) of the US National Cancer Institute (NCI) (www.dtp.nci.nih.gov), screening of a cancer cell line panel was performed. Briefly, human cell lines were allowed to grow in an RPMI 1640 medium containing 5% FBS and 2 mM L-glutamine. For a general screening experiment, cells were inoculated in 96-well microtiter plates in 100 μl at a plating density ranging from 5000 cells/well to 40,000 cells/well depending on the doubling time of individual cell lines. After cell inoculation, the microtiter plates were incubated at 37° C., 5% CO2, 95% air, and 100% relative humidity for 24 hours prior to addition of test compounds. 24 hours later, two plates of each cell line were fixed in situ with trichloroacetic acid (TCA) to measure the cell population for each cell line at the time of test compound addition (Tz). Test compounds were solubilized in dimethyl sulfoxide at 400-fold the intended final maximum test concentration, and stored frozen prior to use. At the time of compound addition, an aliquot of frozen concentrate was thawed and diluted to twice the intended final maximum test concentration with a complete medium containing 50 μg/ml of gentamicin. Additional four concentration of 10-fold or ½ log serial dilutions were made to provide a total of five compound concentrations plus control. Aliquots of 100 μl of these different compound dilutions were added to appropriate microtiter wells already containing 100 μl of medium, resulting in the required final compound concentrations.
(§4) Following compound addition, the plates were incubated for additional 48 hours at 37° C., 5% CO2, 95% air, and 100% relative humidity. For adherent cells, the assay was terminated by the addition of cold TCA. Cells were fixed in situ by the gentle addition of 50 μl of cold 50% (w/v) TCA (final concentration, 10% TAC) and incubated at 4° C. for 60 minutes. The supernatant was discarded, and the plates were washed five times with tap water and air-dried. A sulforhodamine B (SRB) solution (100 μl) at 0.4% (w/v) in 1% acetic acid was added to each well, and plates were incubated at room temperature for 10 minutes. After staining, unbound dye was removed by washing five times with 1% acetic acid and the plates were air-dried. Bound stain was subsequently solubilized with 10 mM Trizma base, and the absorbance was read on an automated plate reader at a wavelength of 515 nm. For suspension cells, the methodology was the same except that the assay was terminated by fixing settled cells at the bottom of the wells by gently adding 50 μl of 80% TCA (final concentration, 16% TCA). Using the seven absorbance measurements [time zero (Tz), control growth (C), and test growth rate in the presence of compound at the five concentration levels (Ti)], the growth percentage was calculated at each of the compound concentration levels. Growth inhibition percentage was calculated as follows: [(Ti−Tz)/(C−Tz)]×100 for concentrations for which Ti>/=Tz [(Ti−Tz)/Tz]×100 for concentrations for which Ti<Tz.

The test system of another data set is M14. Description: NCI cancer cell line panel screening (SRB), melanoma cell line M14. The conditions noted are these: Homo sapiens, read-out: IC50 against melanoma cell line in vitro. In kind it is cell-based. The procedure:
as §3, §4

Data set [1] relates to A375P cell line xenograft. Description: Tumor-inhibitory effects in melanoma mouse xenograft model. On the set-up: Tumor size: unit not given here. In kind it is in vivo, nude mice. The protocol:
In this experiment, A375P cell line which is a human-derived malignant melanoma cell line was subcutaneously administered to nude mice to prepare xenograft models, and the test material (compound 2II) was administered to the xenograft models to evaluate anti-cancer effects (GI: an excipient control group, G2: a group administered with 20 mg/kg/day of the test material, and G3: a group administered with 50 mg/kg/day of the test material).

Another data set has as its system SK-MEL-5. In words: NCI cancer cell line panel screening (SRB), melanoma cell line SK-MEL-5. Format: cell-based, human. Conditions: Homo sapiens, read-out: IC50 against melanoma cell line in vitro. The protocol:
as §1, §2

[2] abbreviates: 20 and 50 mg/kg/day, intravenous, twice per week for 3 weeks.

Consider `CCN1CCN(CCNc2nccc(-c3c(-c4cccc(O)c4)nc4occn34)n2)S1(=O)=O` [2II, 2-Ethyl-5-(2-((4-(6-(3-hydroxylphenyl)imidazo[2,1-b]oxazol-5-yl)pyrimidin-2-yl)amino)ethyl)-1,2,5-thiadiazolidine 1,1-dioxide], for which the IC50 with SK-MEL-28 was determined as 130 nM; in the data set on LOX IMVI, 2530 nM; in the data set on UACC-62, 70 nM; with M14, 140 nM; in the data set with SK-MEL-5, 6280 nM. Also, the “General symptoms and deaths” value in data set [1] (setting [2]) is on record as “no deaths or no abnormalities in general symptoms were observed”. Further, the “Increase of the tumor size” value in data set [1] (setting [2]) is listed as “inhibited in a dose-dependent manner”. Moreover, the “Tumor size, difference between experimental groups” value in data set [1] (G1, G2 (20 mg/kg/day), G3 (50 mg/kg/day)) is “no significant difference between all experimental groups”. Further, the Tumor size turned out to be 145.08 ± 20.85 in data set [1] (G2, 20 mg/kg/day, day 0); 271.88 ± 60.05 in data set [1] (G2, 20 mg/kg/day, day 4); 556.42 ± 161.21 in data set [1] (G2, 20 mg/kg/day, day 7); 978.91 ± 258.24 in data set [1] (G2, 20 mg/kg/day, day 11); 1711.5 ± 631.79 in data set [1] (G2, 20 mg/kg/day, day 14); 2438.5 ± 962.99 in data set [1] (G2, 20 mg/kg/day, day 18). The Tumor size in data set [1] (G2, 20 mg/kg/day, day 21) worked out at 3200.6 ± 944.99; in data set [1] (G3, 50 mg/kg/day, day 0), 149.36 ± 20.91; in data set [1] (G3, 50 mg/kg/day, day 4), 276.08 ± 86.17; in data set [1] (G3, 50 mg/kg/day, day 7), 442.88 ± 73.08; in data set [1] (G3, 50 mg/kg/day, day 11), 754.16 ± 211.86; in data set [1] (G3, 50 mg/kg/day, day 14), 1174.7 ± 411.22. In addition, the Tumor size in data set [1] (G3, 50 mg/kg/day, day 18) is listed as 1543.9 ± 411.21; in data set [1] (G3, 50 mg/kg/day, day 21) it was 2063.1 ± 657.93. Further, the “Body weight gain compared with excipient control group” value in data set [1] (G3, 50 mg/kg/day) is reported as “significantly low”. Moreover, in data set [1] (G3, 50 mg/kg/day, at 14 days and 21 days after administration), the “Body weight compared with control group (G1)” value is “significantly low”.
